Reference: patent publication EP2457907A1, “Flavagline derivatives as neuroprotective agents” (Université de Strasbourg, priority 2010, dated 2012)

Columns and labels:
[1] = tested on: primary rat mesencephalic neurons; experiment: Neuroprotection against MPP+-induced apoptosis (in vitro model of Parkinson's disease), TH immunostaining; assay type: cell-based; conditions: 3µM MPP+; numbers only in Figure 4
Description: The neuroprotectant activity was tested in a cellular model of Parkinson's disease on primary mesencephalic cultures of rat embryos treated by MPP^+ (3µM) (Hoglinger et al. 2003).
Postmitotic dopaminergic neurons from the ventral mesencephalon of embryonic day 15.5 Wistar rat embryos (CERJ, Le Genest St. Isle, France) were dissociated mechanically, plated onto polyethylenimine-precoated 24-well culture plates, grown in N5 medium supplemented with 5 mM glucose, 5% horse serum and 2.5% fetal calf serum, as described previously (Michel et al., 1989). After 3 days, fetal calf serum was reduced to 0.5% to limit astrocyte proliferation. All experiments were initiated at day 5 in N5 medium containing 1 % horse serum and 0.1 % fetal calf serum. For each experiment MPP^+ (Sigma) was diluted to 10 mM in H2O. Cells were fixed with 4% formaldehyde for immunocytochemistry. Dopaminergic neurons were visualized by immunocytochemical detection of tyrosine hydroxylase (TH).

[2] = tested on: primary cultures of mouse cerebellar neurons; experiment: Neuroprotection against cisplatin-induced apoptosis (MTT assay); assay type: cell-based; conditions: flavagline derivative 1 nM, cisplatin 2.5 µM, 48 hours; numbers only in Figure 3
Description: The in vitro neuroprotectant activity against neurotoxicity of an antineoplastic agent was assayed on apoptosis induced by cisplatin (2.5 µM) in primary cultures of mouse cerebellar neurons. Neuronal survival was measured by MTT assay.
Cerebellar granular neurons were dissected from 7-day old mice as described previously (Benosman et al., 2007). Briefly, after enzymatic and mechanical dissociation, cells were plated at a density of 500 cells/mm^2 on 0.1 mg/ml polyornithine-pre-coated culture dishes and were grown at 37 °C in a humidified atmosphere (5% CO2 / 95% air). Plating culture medium contained DMEM (Dulbecco's modified Eagle's medium; Life Technology) supplemented with 10% heat-inactivated horse serum (Life Technology), 100 nM insulin (Life Technology), […] gentamycin (Life Technology) and 25 mM KCl. […]
Mature neurons were cultured in 96-well culture dishes (Costar) and incubated for 48 hours in presence of cisplatine (2.5 µM) and flavagline derivative (1 nM) (which were both added into the medium at the same time). […] Plates were stirred at room temperature to ensure that all crystals were dissolved and read on a Bio-Rad 680 micro-ELISA plate-reader, using a test wavelength of 490 nm and a non-specific wavelength of 650 nm for background absorbency. […]

| SMILES | protection against MPP+-induced neurodegeneration (TH-positive dopaminergic neurons) [1] | protection of neurons against apoptosis induced by cisplatin (neuronal survival) [2] |
| --- | --- | --- |
| COc1cc(OC)c2c(c1)OC1(c3ccc(Br)cc3)C(c3ccccc3)CC(NC=O)C21O (centres unmarked) [FL23, N-(3a-(4-Bromophenyl)-8b-hydroxy-6,8-dimethoxy-3-phenyl-2,3,3a,8b-tetrahydro-1H-cyclopenta[b]benzofuran-1-yl)formamide] | able to prevent or limit neuronal cell degeneration | able to prevent or limit neuronal cell apoptosis |
| COc1cc(OC)c2c(c1)OC1(c3ccc(Br)cc3)C(c3cccc(F)c3)CC(NC=O)C21O (centres unmarked) [FL32, N-(3a-(4-Bromophenyl)-3-(3-fluorophenyl)-8b-hydroxy-6,8-dimethoxy-2,3,3a,8b-tetrahydro-1H-cyclopenta[b]benzofuran-1-yl)formamide] | able to prevent or limit neuronal cell degeneration | – |
| COc1cc(OC)c2c(c1)OC1(c3ccc(Br)cc3)C(c3cccc(F)c3)CC(NC(=O)N(C)C)C21O (centres unmarked) [FL37] | able to prevent or limit neuronal cell degeneration | able to prevent or limit neuronal cell apoptosis |
